In PMC12974487, “Inhibition of FicD-mediated AMPylation and deAMPylation by isoprenoid diphosphates” (Proceedings of the National Academy of Sciences of the …, 2026):

Tests used:
[1] = tested on: Glutathione S-transferase (GST); test: DSF specificity control with GST; assay type: binding; conditions: same concentrations as measured for FicD
Excerpt: To ensure specificity of binding to the FicD enzyme, we performed DSF with Glutathione S-transferase (GST) and BiP in the presence of the same increasing metabolite concentrations. […] Like FicD, BiP is an ATP/Mg^2+ dependent protein that could potentially leverage the same binding mode as GPP/FPP. […]
across samples. Extremely low or missing values were floored to metabolite-specific limits of detection. For each dialysis replicate, log₂-transformed abundances were computed, and log₂(fold change) was calculated as the difference between protein and metabolite chambers. Injection replicates were averaged prior to fold-change calculation. Dialysis replicates with missing chamber measurements were excluded. Technical replicates were retained for outlier detection. Metabolites dominated by noise were removed based on comparison of a null model (intercept only) versus a protein-specific model and RMSE > 0.5 across dialysis replicates. Remaining metabolites were classified as “protein signal” and retained for analysis. For each metabolite–protein pair, up to one extreme outlier was removed using a z-score cutoff of 4. Dialysis replicates were then averaged to yield a consensus fold-change per protein–metabolite pair. […]

BiP = biological target: T1, BiP (Homo sapiens, UniProt P11021, T229A); test: DSF specificity control with BiP; assay type: binding; conditions: same increasing metabolite concentrations
T1 construct: BiPT229A (residues 27-654) was expressed as an 6xHis-Thrombin-T7 n-terminal fusion; 6xHis-Thrombin-T7 (N); made in house; host or cells: Rosetta(DE3) E. coli

FicD^WT = biological target: T2, FicD^WT (Homo sapiens, UniProt Q9BVA6); test: In vitro AMPylation of Δ26hBiP^T229A by FicD^WT (Western blot); assay type: biochemical; conditions: for inhibition of AMPylation of Δ26hBiP^T229A by FicD^WT: 100 μM metabolite, 500 μM ATP, 5 mM MgCl2; for concentration at which inhibition of AMPylation started: dose-response Western blot, FicD^WT
T2 construct: soluble ER luminal domain (residues 105 to 458) of wild-type human FicD; 6xHis-Sumo (N, cleaved yes); made in house; host or cells: Rosetta(DE3) E. coli
T2 sequence (Q9BVA6 105-458): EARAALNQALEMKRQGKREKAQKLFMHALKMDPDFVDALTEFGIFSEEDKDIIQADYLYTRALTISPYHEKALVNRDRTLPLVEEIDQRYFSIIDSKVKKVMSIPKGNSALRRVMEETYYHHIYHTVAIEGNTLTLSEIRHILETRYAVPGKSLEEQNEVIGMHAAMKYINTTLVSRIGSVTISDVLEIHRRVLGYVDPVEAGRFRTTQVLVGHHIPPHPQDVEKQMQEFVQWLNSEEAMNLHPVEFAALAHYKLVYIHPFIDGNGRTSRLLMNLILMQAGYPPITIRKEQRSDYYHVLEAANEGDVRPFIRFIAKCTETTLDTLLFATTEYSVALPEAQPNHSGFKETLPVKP
Excerpt: We next sought to assess the effects of FPP, GPP, and isoprenoid analogues on FicD activity. To accurately judge the effects of small molecules on FicD AMPylation activity, we used the ATPase defective BiP^T229A mutant as substrate ([22], [49], [50]). Loss of ATP hydrolysis by the BiP mutant ensures: 1. conformational homogeneity of the BiP protein substrate; 2. lack of BiP competition for the ATP substrate; and 3. no production of ADP, a competitive inhibitor for ATP. In addition, we deleted the first 25 amino acids of BiP for ease with its purification and solubility. […]
For AMPylation assays with FicD and BiP, Δ104FicDWT and Δ26hBiPT229A were combined at a ratio
of 1:80 in buffer containing 25mM HEPES pH 7.4, 100mM KCl, 5mM MgCl2, 500μM ATP, 1mM
DTT, and small molecule where indicated. Assays with Δ104FicDWT were incubated for 1 hour.
the amount of FicD as in reactions containing FicDWT and were incubated at 37C for 4.5 hours. […]

T1 sequence (P11021 27-654 T229A): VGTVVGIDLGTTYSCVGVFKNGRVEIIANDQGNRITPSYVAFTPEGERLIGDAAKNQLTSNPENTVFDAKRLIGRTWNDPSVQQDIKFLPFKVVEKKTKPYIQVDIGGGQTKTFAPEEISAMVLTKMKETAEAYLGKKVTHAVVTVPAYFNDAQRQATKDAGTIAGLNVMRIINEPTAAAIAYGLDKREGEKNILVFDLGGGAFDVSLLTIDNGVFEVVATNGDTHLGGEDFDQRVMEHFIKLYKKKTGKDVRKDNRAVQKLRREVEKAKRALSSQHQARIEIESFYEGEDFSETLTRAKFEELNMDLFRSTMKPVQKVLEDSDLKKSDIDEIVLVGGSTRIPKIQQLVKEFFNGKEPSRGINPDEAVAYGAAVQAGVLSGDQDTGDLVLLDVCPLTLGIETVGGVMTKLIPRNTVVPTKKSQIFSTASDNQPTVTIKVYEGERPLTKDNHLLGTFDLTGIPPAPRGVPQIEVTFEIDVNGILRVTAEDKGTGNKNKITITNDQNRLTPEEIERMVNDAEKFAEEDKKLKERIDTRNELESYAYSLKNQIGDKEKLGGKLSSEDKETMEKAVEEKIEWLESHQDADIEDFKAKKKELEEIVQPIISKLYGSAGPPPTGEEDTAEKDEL

## CC(C)=CCC/C(C)=C/COP(=O)(O)OP(=O)(O)O [GPP, geranyl-pyrophosphate]
[1]
  change in GST melt curves or Tm: Neither GPP nor FPP elicited a change
BiP
  change in melt curves or Tm of BiP: neither GPP nor FPP elicited a change
FicD^WT
  inhibition of AMPylation of Δ26hBiP^T229A by FicD^WT: inhibited
  concentration at which inhibition of AMPylation started: 20 µM

## CC(C)=CCC/C(C)=C/CC/C(C)=C/COP(=O)(O)OP(=O)(O)O [FPP, farnesyl-pyrophosphate]
[1]
  change in GST melt curves or Tm: Neither GPP nor FPP elicited a change
BiP
  change in melt curves or Tm of BiP: neither GPP nor FPP elicited a change
FicD^WT
  inhibition of AMPylation of Δ26hBiP^T229A by FicD^WT: inhibited
  concentration at which inhibition of AMPylation started: 5 µM
FicD^WT; substrate exceeds FPP by two to three orders of magnitude
  apparent EC50 of inhibition of AMPylation: low micromolar range
